Measured values: patent publication US20150315241A1, “Antibiotic Peptides” (priority 2007, published 2015)
Converted amounts (≈) assume the structure as drawn. Where a SMILES comes first, the peptide text is derived from it. Where no end group is shown, it is not given here. [ ]: non-standard residue; d: D form. The star is where a group is joined. Orn(α-tetramethylguanidino) = CN(C)C(=N[C@@H](CCCN)C(=O)*)N(C)C; hArg = N=C(N)NCCCC[C@H](N)C(=O)O; For = O=C*

Tests used:
E. coli BL 21 AI = experiment: Growth inhibition assay (MIC); type: cell-based, Escherichia coli; conditions: 1% TSB, 37° C., 20 hrs
Method in brief: (§1)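 Peptides were serially diluted two-fold in 1% TSB, giving final concentrations from 125 μg/mL down to 60 ng/mL, and mixed with overnight bacterial culture adjusted to 5×10^6 CFU/mL in 1% TSB. After 20 hrs at 37 °C, growth was read as absorbance at 595 nm, in triplicate, with sterile water as negative control.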

S. typhi S5 = type: cell-based, Salmonella typhi; conditions: S5, 20 h
Method in brief: (§2)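 MIC by growth inhibition: overnight NB culture → 5×10^6 CFU/mL in 1% TSB; peptide 2-fold series, final 125 μg/mL to 60 ng/mL; 37° C., 20 hrs; OD595. n=3.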

K. pneumonia 681 = type: cell-based, Klebsiella pneumoniae; conditions: 20 h
Experimental: (§3) The minimal inhibition concentrations (MIC) of the apidaecin-derived peptides and peptide-derivatives were determined by a growth inhibition assay using a serial peptide dilution in sterilized round-bottom 96-well plates (polystyrene, U-bottom, Greiner Bio-One GmbH) with a final volume of 100 μL per well. The bacteria, e.g., E. coli BL21 A1, were grown in nutrient broth (NB, Carl Roth GmbH+Co. KG, Karlsruhe, Germany) at 37° C. over night. To each well of the 96-well plate, 50 μL of the overnight culture adjusted to 5×10^6 CFU/mL in 1% TSB were added. Lyophilized peptides and peptidomimetics were dissolved in 1% TSB (tryptic soy broth) or water to give a final concentration of 250 μg/mL. Fifty μL of the peptide or peptidomimetics solution were added to the first well of a row on the plate and mixed. Fifty μL of the first well containing the peptide solution were transferred to the second well, mixed and again 50 μL transferred to the next well and so on. Thereby, a two-fold dilution series was obtained starting at 250 μg/mL in the first well down to 120 ng/mL in the 12th well of a row giving a final peptide or peptidomimetics concentration from 125 μg/mL (well 1) to 60 ng/mL (well 12). Plates were incubated at 37° C. for 20 hrs. The absorbance was measured at 595 nm using a TECAN micro plate spectrophotometer (Tecan, Germany). All peptides and peptidomimetics were measured in triplicates. Sterilized water was used as a negative control.
(§4) The bacteria strains were tested: • Eschericha coli 1103, 10233, BL 21 AI, DC 2, • Klebsiella pneumoniae 681, • Micrococcus luteus ATCC 10240, • Mycobacterium vaccae • Bactillus subtillis 347.

[1] = test system: S. enterica subsp. Enterica serovar. typhi G10215 ATCC 700408; type: cell-based, Salmonella enterica; conditions: ATCC 700408, 20 h
Method in brief: as §2

M. luteus ATCC 10240 = type: cell-based, Micrococcus luteus; conditions: ATCC 10240, 20 h
Method in brief: as §1

E. coli 45849 = experiment: Growth inhibition assay (MIC); type: cell-based, Escherichia coli; conditions: multidrug resistant strain; 1% TSB, 37° C., 20 hrs
Method in brief: as §2

E. coli D31 = type: cell-based, Escherichia coli; conditions: D31, 20 h
Method in brief: as §2

B. subtilis 347 = type: cell-based, Bactillus subtillis; conditions: 347, 20 h
Experimental: as §3, §4

[2] = test system: K. Pneumonia K6, ATCC 700603; experiment: Growth inhibition assay (MIC); type: cell-based, Klebsiella pneumoniae; conditions: multidrug resistant strain; 1% TSB, 37° C., 20 hrs
Method in brief: as §2

K. Pneumonia 123132 = experiment: Growth inhibition assay (MIC); type: cell-based, Klebsiella pneumoniae; conditions: multidrug resistant strain; 1% TSB, 37° C., 20 hrs
Method in brief: as §2

E. coli 10233 = type: cell-based, Escherichia coli; conditions: 10233, 20 h
Experimental: as §3, §4

in vitro = in vitro ADME, mouse; conditions: 25% aqueous mouse serum, 37° C.; read-out: Half-life time
Experimental: Serum stability studies were carried out in duplicate as described by Hoffmann et al.. Briefly, 28 μL of an aqueous peptide or peptidomimetics solution (0.5 mg/mL) was added to 0.2 mL freshly pooled 25% mouse serum (Sigma-Aldrich GmbH, Taufkirchen, Germany) in water. The mixtures were incubated at 37° C. under gentle stirring. The proteins were precipitated with 40 μL of 15% aqueous TCA after incubation times of 0, 0.5, 1, 2, 4 and 6 h at 0° C. for 20 min before centrifuged (13500×G) at 4° C. for 5 min. The supernatants of all samples (240 μL) were neutralized with 1 mol/L aqueous NaOH and immediately stored at −20° C. The supernatants were analyzed by RP-HPLC using a linear acetonitrile gradient as described above with 0.1% TFA as ion pair reagent. Collected fractions of the main peaks were further analyzed by tandem mass spectrometry (MALDI-TOF/TOF-MS, 4700 Proteomics Analyzer, Applied Biosystems GmbH, Weiterstadt, Germany) in positive ion reflector mode using α-cyanohydroxycinnamic acid (50% CH3CN in 0.1% aqueous TFA) as matrix to identify the degradation products of the peptides and peptidomimetics, i.e., metabolites, at the different time points. Serum control samples consisted of 200 μL of pooled 25% mouse serum in water, which were also precipitated with 40 μL 15% aqueous TCA, as described before. Peptide reference samples consisted of 28 μL of the peptide stock solution diluted in 0.2 mL water and 40 μL of 15% aqueous trichloroacetic acid (TCA).

E. coli 1103 = type: cell-based, Escherichia coli; conditions: 1103, 20 h
Experimental: as §3, §4

## CC[C@H](C)[C@H](NC(=O)[C@H](Cc1ccc(O)cc1)NC(=O)[C@@H](NC(=O)[C@@H]1CCCN1C(=O)[C@H](CCCNC(=N)N)NC(=O)[C@H](CC(N)=O)NC(=O)[C@H](CC(N)=O)NC(=O)CNC=O)C(C)C)C(=O)N1CCC[C@H]1C(=O)N[C@@H](CCC(N)=O)C(=O)N1CCC[C@H]1C(=O)N[C@@H](CCCNC(=N)N)C(=O)N1CCC[C@H]1C(=O)N1CCC[C@H]1C(=O)N[C@@H](Cc1c[nH]cn1)C(=O)N1CCC[C@H]1C(=O)N[C@@H](CCCNC(=N)N)C(=O)N[C@@H](CC(C)C)C(N)=O [compound 84] (For-GNNRPVYIPQPRPPHPRL-NH2)
E. coli BL 21 AI
  MIC E. coli BL 21 AI: 1.95 µg/mL (≈ 0.913 µM)
S. typhi S5
  MIC S. typhi S5: 0.25 µg/mL (≈ 0.117 µM)
K. pneumonia 681
  MIC K. pneumonia 681: 62.5 µg/mL (≈ 29.3 µM)
[1]
  MIC S. enterica subsp. Enterica serovar. typhi G10215 ATCC 700408: 0.25 µg/mL (≈ 0.117 µM)
M. luteus ATCC 10240
  MIC M. luteus ATCC 10240: 3.91 µg/mL (≈ 1.83 µM)
E. coli 45849
  MIC E. coli 45849: 0.5 µg/mL (≈ 0.234 µM)
E. coli D31
  MIC E. coli D31: 1 µg/mL (≈ 0.468 µM)
B. subtilis 347
  MIC B. subtilis 347: >125 µg/mL
[2]
  MIC K. Pneumonia K6, ATCC 700603: 32 µg/mL (≈ 15 µM)
K. Pneumonia 123132
  MIC K. Pneumonia 123132: 32 µg/mL (≈ 15 µM)
E. coli 10233
  MIC E. coli 10233: 1.95 µg/mL (≈ 0.913 µM)

## CC[C@H](C)[C@H](NC(=O)[C@H](Cc1ccc(O)cc1)NC(=O)[C@@H](NC(=O)[C@@H]1CCCN1C(=O)[C@H](CCCNC(=N)N)NC(=O)[C@H](CC(N)=O)NC(=O)[C@H](CC(N)=O)NC(=O)[C@H](CCCN)N=C(N(C)C)N(C)C)C(C)C)C(=O)N1CCC[C@H]1C(=O)N[C@@H](CCCNC(=N)N)C(=O)N1CCC[C@H]1C(=O)N[C@@H](CCCNC(=N)N)C(=O)N1CCC[C@H]1C(=O)N1CCC[C@H]1C(=O)N[C@@H](Cc1c[nH]cn1)C(=O)N1CCC[C@H]1C(=O)N[C@@H](CCCCNC(=N)N)C(=O)N[C@@H](CC(C)C)C(N)=O [compound 155] ({Orn(α-tetramethylguanidino)}-NNRPVYIPRPRPPHP[hArg]L-NH2)
In vitro
  half-life: > 6 h
E. coli BL 21 AI
  MIC E. coli BL 21 AI: 4 µg/mL (≈ 1.74 µM)
S. typhi S5
  MIC S. typhi S5: 4 µg/mL (≈ 1.74 µM)
K. pneumonia 681
  MIC K. pneumonia 681: 4 µg/mL (≈ 1.74 µM)
[1]
  MIC S. enterica subsp. Enterica serovar. typhi G10215 ATCC 700408: 0.5 µg/mL (≈ 0.217 µM)
M. luteus ATCC 10240
  MIC M. luteus ATCC 10240: 1 µg/mL (≈ 0.434 µM)
E. coli 45849
  MIC E. coli 45849: 4 µg/mL (≈ 1.74 µM)
E. coli D31
  MIC E. coli D31: 4 µg/mL (≈ 1.74 µM)
B. subtilis 347
  MIC B. subtilis 347: 32 µg/mL (≈ 13.9 µM)
[2]
  MIC K. Pneumonia K6, ATCC 700603: 4 µg/mL (≈ 1.74 µM)
K. Pneumonia 123132
  MIC K. Pneumonia 123132: 2 µg/mL (≈ 0.868 µM)
E. coli 1103
  MIC E. coli 1103: 4 µg/mL (≈ 1.74 µM)

## GNNRPVYIPQPRPPHPRL [compound 2]
E. coli BL 21 AI
  MIC E. coli BL 21 AI: 0.98 µg/mL
K. pneumonia 681
  MIC K. pneumonia 681: 62.5 µg/mL
[1]
  MIC S. enterica subsp. Enterica serovar. typhi G10215 ATCC 700408: 2 µg/mL
M. luteus ATCC 10240
  MIC M. luteus ATCC 10240: 31.25 µg/mL
E. coli D31
  MIC E. coli D31: 32 µg/mL
B. subtilis 347
  MIC B. subtilis 347: >125 µg/mL
[2]
  MIC K. Pneumonia K6, ATCC 700603: 64 µg/mL
E. coli 10233
  MIC E. coli 10233: 1.95 µg/mL
E. coli 1103
  MIC E. coli 1103: 7.81 µg/mL

## H-LRPHPPRPQPIYVPRNNG-NH2 [compound 141]
E. coli BL 21 AI
  MIC E. coli BL 21 AI: >125 µg/mL
K. pneumonia 681
  MIC K. pneumonia 681: >125 µg/mL
M. luteus ATCC 10240
  MIC M. luteus ATCC 10240: >125 µg/mL
B. subtilis 347
  MIC B. subtilis 347: >125 µg/mL
E. coli 10233
  MIC E. coli 10233: >125 µg/mL
E. coli 1103
  MIC E. coli 1103: >125 µg/mL
